Reference: ChEMBL document CHEMBL4699525, “Design and synthesis of new indanol-1,2,3-triazole derivatives as potent antitubercular and antimicrobial agents” (Bioorg Med Chem Lett, 2020)
In brackets after ≈: the same amount, converted by molar mass.

How the values were obtained:
[1] = biological target: T1, Enoyl-[acyl-carrier-protein] reductase [NADH] (Mycobacterium tuberculosis) (UniProt P9WGR1); test: Inhibition of InhA in Mycobacterium tuberculosis H37Rv assessed antitubercular activity by measuring inhibition of bacterial growth incubated for 7 days by MABA assay; details: time 7.0 day
T1 sequence (whole entry): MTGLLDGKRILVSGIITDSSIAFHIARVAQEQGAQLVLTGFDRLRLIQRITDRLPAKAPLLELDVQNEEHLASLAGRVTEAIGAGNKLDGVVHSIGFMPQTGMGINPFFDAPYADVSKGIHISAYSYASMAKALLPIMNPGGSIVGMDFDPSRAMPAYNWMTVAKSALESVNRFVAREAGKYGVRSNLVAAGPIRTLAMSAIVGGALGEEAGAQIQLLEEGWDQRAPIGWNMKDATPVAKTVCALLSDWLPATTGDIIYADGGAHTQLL

[2] = Cytotoxicity against human HEK293 cells assessed as inhibition of cell growth at 25 uM incubated for 48 hrs by MTT assay; assay type: cell-based
Staphylococcus aureus [3] = test: Antibacterial activity against Staphylococcus aureus assessed as inhibition of bacterial growth incubated for 24 hrs by agar well diffusion method; assay type: functional
Bacillus cereus = test: Antibacterial activity against Bacillus cereus assessed as inhibition of bacterial growth incubated for 24 hrs by agar well diffusion method; assay type: functional
Bacillus subtilis = test: Antibacterial activity against Bacillus subtilis assessed as inhibition of bacterial growth incubated for 24 hrs by agar well diffusion method; assay type: functional
Klebsiella aerogenes [4] = test: Antibacterial activity against Enterobacter aerogenes assessed as inhibition of bacterial growth incubated for 24 hrs by agar well diffusion method; assay type: functional
Escherichia coli = test: Antibacterial activity against Escherichia coli assessed as inhibition of bacterial growth incubated for 24 hrs by agar well diffusion method; assay type: functional
Salmonella typhi = test: Antibacterial activity against Salmonella typhi assessed as inhibition of bacterial growth incubated for 24 hrs by agar well diffusion method; assay type: functional, Salmonella enterica subsp. enterica serovar Typhi
Pseudomonas aeruginosa = test: Antibacterial activity against Pseudomonas aeruginosa assessed as inhibition of bacterial growth incubated for 24 hrs by agar well diffusion method; assay type: functional
Shigella boydii [5] = test: Antibacterial activity against Shigella boydii assessed as inhibition of bacterial growth incubated for 24 hrs by agar well diffusion method; assay type: functional
[6] = tested on: Salmonella enterica subsp. enterica serovar Abony; test: Antibacterial activity against Salmonella abony assessed as inhibition of bacterial growth incubated for 24 hrs by agar well diffusion method; assay type: functional
Aspergillus niger [7] = test: Antifungal activity against Aspergillus niger assessed as inhibition of fungal growth incubated for 24 hrs by agar well diffusion method; assay type: functional
Candida albicans [8] = test: Antifungal activity against Candida albicans assessed as inhibition of fungal growth incubated for 24 hrs by agar well diffusion method; assay type: functional
Saccharomyces cerevisiae [9] = test: Antifungal activity against Saccharomyces cerevisiae assessed as inhibition of fungal growth incubated for 24 hrs by agar well diffusion method; assay type: functional
Staphylococcus aureus [10] = test: Antibacterial activity against Staphylococcus aureus assessed as inhibition of bacterial growth incubated for overnight by CLSI based method; assay type: functional
Klebsiella aerogenes [11] = test: Antibacterial activity against Enterobacter aerogenes assessed as inhibition of bacterial growth incubated for overnight by CLSI based method; assay type: functional
Shigella boydii [12] = test: Antibacterial activity against Shigella boydii assessed as inhibition of bacterial growth incubated for overnight by CLSI based method; assay type: functional
Aspergillus niger [13] = test: Antifungal activity against Aspergillus niger assessed as inhibition of […] growth incubated for overnight by CLSI based method; assay type: functional
Candida albicans [14] = test: Antifungal activity against Candida albicans assessed as inhibition of […] growth incubated for overnight by CLSI based method; assay type: functional
Saccharomyces cerevisiae [15] = test: Antifungal activity against Saccharomyces cerevisiae assessed as inhibition of […] growth incubated for overnight by CLSI based method; assay type: functional

SMILES	MIC [1]	inhibition at 48 h, 25 µM [2]	diameter of the inhibition zone (DIZ) (Staphylococcus aureus [3])	diameter of the inhibition zone (DIZ) (Bacillus cereus)	diameter of the inhibition zone (DIZ) (Bacillus subtilis)	diameter of the inhibition zone (DIZ) (Klebsiella aerogenes [4])	diameter of the inhibition zone (DIZ) (Escherichia coli)	diameter of the inhibition zone (DIZ) (Salmonella typhi)	diameter of the inhibition zone (DIZ) (Pseudomonas aeruginosa)	diameter of the inhibition zone (DIZ) (Shigella boydii [5])	diameter of the inhibition zone (DIZ) [6]	diameter of the inhibition zone (DIZ) (Aspergillus niger [7])	diameter of the inhibition zone (DIZ) (Candida albicans [8])	diameter of the inhibition zone (DIZ) (Saccharomyces cerevisiae [9])	MIC (Staphylococcus aureus [10])	MIC (Klebsiella aerogenes [11])	MIC (Shigella boydii [12])	MIC (Aspergillus niger [13])	MIC (Candida albicans [14])	MIC (Saccharomyces cerevisiae [15])
Brc1ccccc1-n1cc(COc2ccc3c(c2)CCC3)nn1	6.25 µM (≈ 2.31 µg/mL)	16.5%	16 mm	9 mm	10 mm	12 mm	11 mm	11 mm	13 mm	12 mm	13 mm	7 mm	9 mm	10 mm	90 µg/mL (≈ 243 µM)	120 µg/mL (≈ 324 µM)	140 µg/mL (≈ 378 µM)	170 µg/mL (≈ 459 µM)	130 µg/mL (≈ 351 µM)	110 µg/mL (≈ 297 µM)
Cc1ccc([N+](=O)[O-])cc1-n1cc(COc2ccc3c(c2)CCC3)nn1	12.5 µM (≈ 4.38 µg/mL)	26.5%	13 mm	12 mm	12 mm	11 mm	11 mm	11 mm	9 mm	11 mm	9 mm	6 mm	15 mm	6 mm	50 µg/mL (≈ 143 µM)	60 µg/mL (≈ 171 µM)	60 µg/mL (≈ 171 µM)	155 µg/mL (≈ 442 µM)	40 µg/mL (≈ 114 µM)	150 µg/mL (≈ 428 µM)
COc1ccccc1NC(=O)Cn1cc(COc2ccc3c(c2)CCC3)nn1	6.25 µM (≈ 2.37 µg/mL)	23.4%	12 mm	–	10 mm	13 mm	10 mm	12 mm	8 mm	12 mm	11 mm	10 mm	12 mm	10 mm	120 µg/mL (≈ 317 µM)	95 µg/mL (≈ 251 µM)	150 µg/mL (≈ 396 µM)	170 µg/mL (≈ 449 µM)	180 µg/mL (≈ 476 µM)	210 µg/mL (≈ 555 µM)
O=C(Cn1cc(COc2ccc3c(c2)CCC3)nn1)Nc1cccc(Cl)c1	> 25 µM	–	10 mm	10 mm	12 mm	12 mm	13 mm	13 mm	9 mm	11 mm	7 mm	8 mm	10 mm	5 mm	135 µg/mL (≈ 353 µM)	110 µg/mL (≈ 287 µM)	140 µg/mL (≈ 366 µM)	190 µg/mL (≈ 496 µM)	165 µg/mL (≈ 431 µM)	230 µg/mL (≈ 601 µM)
Brc1cccc(-n2cc(COc3ccc4c(c3)CCC4)nn2)c1	> 25 µM	–	19 mm	10 mm	17 mm	16 mm	15 mm	8 mm	14 mm	20 mm	14 mm	6 mm	14 mm	7 mm	100 µg/mL (≈ 270 µM)	150 µg/mL (≈ 405 µM)	130 µg/mL (≈ 351 µM)	190 µg/mL (≈ 513 µM)	100 µg/mL (≈ 270 µM)	160 µg/mL (≈ 432 µM)
O=C(Cn1cc(COc2ccc3c(c2)CCC3)nn1)Nc1ccccc1	> 25 µM	–	23 mm	12 mm	12 mm	16 mm	11 mm	12 mm	10 mm	11 mm	11 mm	9 mm	13 mm	12 mm	140 µg/mL (≈ 402 µM)	80 µg/mL (≈ 230 µM)	130 µg/mL (≈ 373 µM)	170 µg/mL (≈ 488 µM)	85 µg/mL (≈ 244 µM)	110 µg/mL (≈ 316 µM)
O=C(Cn1cc(COc2ccc3c(c2)CCC3)nn1)Nc1cccc([N+](=O)[O-])c1	> 25 µM	–	10 mm	12 mm	11 mm	10 mm	10 mm	10 mm	6 mm	10 mm	10 mm	5 mm	10 mm	9 mm	140 µg/mL (≈ 356 µM)	145 µg/mL (≈ 369 µM)	140 µg/mL (≈ 356 µM)	220 µg/mL (≈ 559 µM)	150 µg/mL (≈ 381 µM)	135 µg/mL (≈ 343 µM)
